# Assay results as given in US20140105871A1, “Use Of Mesenchymal Stem Cells For The Improvement Of Affective And Cognitive Function” (priority 2011, published 2014).
# How the values were obtained:
# [1] = system: murine model of schizophrenia (ketamine-injected female ICR pups); assay: Pre-pulse inhibition (PPI) in ketamine-injected pups, murine model of schizophrenia; type: in vivo, mouse; settings: Example 6, intraperitoneal 12 days course
# Experimental: Prepulse inhibition (PPI) test was conducted in startle device (Hamilton Kinder, Poway, Calif.) that consists of a plexiglas cylinder (10×10×5 cm) adapted for mouse size in order to restrict a mouse to stand up on its hind legs and enclosed in a ventilated sound attenuated compartment with a high-frequency loudspeaker producing all acoustic stimuli. The background noise was 65 dB. Movements within the cylinder were detected and transduced by a piezoelectric platform and recorded on a computer. Each trial was initiated with 5 minutes acclimation period followed by five startle pulse alone (ASR) successive testing trials and finishing with final five startle pulses alone. Auditory testing included startle pulse alone (ASR, 120 dB/40 msec) plus three different prepulse sessions in which either 20-msec-long 70, 74 and 82 dB stimuli were preceded the 120 dB pulse by 100 msec, with the alternate background noise measurement set as the baseline movements in the cylinder. All trials followed in a pseudo-random order and the average inter-trial interval (ITI) was […]. PPI was defined as the percentage of the decreased in the ratio between the startle magnitude in the presence of the prepulse and the magnitude in the absence of the prepulse (100−(100× magnitude on prepulse+pulse trial/magnitude on pulse trial)). […]
# [2] = system: cell suspension of rat neonatal brain tissue; assay: Neurosphere growth in conditioned medium of pre-treated MSC cultures (neurogenic potential in vitro); type: cell-based
# Experimental: 70-80% confluent cultures of bone marrow derived MSCs were cultured in vitro in Dulbecco's modified Eagle's medium (DMEM) without Fetal Bovine Serum (FBS) with and supplemented with the addition of one of the following compounds: None, LiCl (2 mM), PACAP27 (20 nM) or DHEA (1 mM). After 3 days medium was changed with fresh ingredients and cultures were allowed to grow for an additional 24 hours. After 24 hours plates were washed twice with PBS and conditioning medium (C.M.) containing none of the above compounds was placed for additional 24 hours. Conditioned medium harvested from these cultures after 24 hours was filtered in 0.2 um filter supplemented with 1% B27 nutrients mix and used as culture medium for a cell suspension of rat neonatal brain tissue in 24 well plates (10^4 cells/well). […]
# The number of developing neurospheres in each conditioned medium type was counted after 5 days of culture and provided an indication of the neurogenic potential of the MSCs culture from which the CM was harvested. […]
# The number of developing neurospheres in each conditioned medium type was counted and provided an indication of the neurogenic potential of the MSCs culture from which the C.M. was harvested.
compound,measurement,setting,value
"CN1CCN(C2=Nc3cc(Cl)ccc3Nc3ccccc32)CC1 [Clozapine, clozapine]",PPI vs Ket control,"[1]; 2.5 months after the treatment course ended, FIG. 17",no significant effect
same,PPI vs Ket control,"[1]; 6 weeks after the course ended, FIG. 16",no significant effect
"[Cl-].[Li+] [LiCl, lithium chloride]","neurogenic activity of the MSCs, in vitro",[2]; incubation of MSCs in culture with the agent,enhanced the neurogenic activity
"HSDGIFTDSYSRYRKQMAVKKYLAAVL [PACAP (P27), fragment of 27 amino acid residues corresponding to amino acids 132-158 of human PACAP]",number of developing neurospheres,"[2]; C.M. of MSC cultures treated with the agent (PACAP27 20 nM, DHEA 1 mM) vs non-treated cultures (C.M. alone), FIG. 2",clear advantage
